Test results taken from ChEMBL document CHEMBL1201862, “PubChem BioAssay data set” (2004).
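Five concentrations, 48 hours, 96-well plates. GI50 is the concentration that inhibits growth by half.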 Calls of active or inactive are those of the source. No stated cut-off is given here; in the data, active = GI50 up to about 1.1 µM and inactive = higher.

What was measured:
Assay in all cases: growth of human tumour cells (NCI), 48 h
[1] = system: SF-268
[2] = system: A498
[3] = system: DU-145
[4] = system: MDA-MB-435
[5] = system: HCT-15
[6] = system: 786-0
[7] = system: BT-549
[8] = system: NCI-H23
[9] = system: UACC-62
[10] = system: SK-OV-3
[11] = system: SN12C
[12] = system: LOX IMVI
[13] = system: RPMI-8226
[14] = system: SK-MEL-28
[15] = system: IGROV-1
[16] = system: NCI-H522
[17] = system: OVCAR-4
[18] = system: A549
[19] = system: NCI-H460
[20] = system: SW-620

| Compound | GI50 [1] | GI50 [2] | GI50 [3] | GI50 [4] | GI50 [5] [µM] | GI50 [6] | GI50 [7] | GI50 [8] | GI50 [9] | GI50 [10] | GI50 [11] | GI50 [12] | GI50 [13] | GI50 [14] | GI50 [15] | GI50 [16] | GI50 [17] | GI50 [18] | GI50 [19] | GI50 [20] |
| --- | --- | --- | --- | --- | --- | --- | --- | --- | --- | --- | --- | --- | --- | --- | --- | --- | --- | --- | --- | --- |
| CC(O)CCC(=O)c1ccoc1 (centres undefined) | 7000 µM (inactive) | 3820 µM (inactive) | 8200 µM (inactive) | > 10000 µM (inactive) | 7660 | > 10000 µM (inactive) | 2920 µM (inactive) | 8110 µM (inactive) | 5210 µM (inactive) | 6970 µM (inactive) | 7180 µM (inactive) | 6030 µM (inactive) | 3740 µM (inactive) | 6930 µM (inactive) | 7290 µM (inactive) | 3680 µM (inactive) | 5110 µM (inactive) | 3940 µM (inactive) | 7230 µM (inactive) | > 9750 µM (inactive) |
| COc1ccc(/C=C2\N/C(=N\N=C/C(O)C(O)C(O)C(O)CO)NC2=O)cc1 (centres undefined) | 22.7 µM (inactive) | 26.9 µM (inactive) | 30.4 µM (inactive) | 26.2 µM (inactive) | > 100 | 35.5 µM (inactive) | 24.6 µM (inactive) | 23.6 µM (inactive) | – | 24.9 µM (inactive) | 23.9 µM (inactive) | 65.3 µM (inactive) | > 100 µM (inactive) | 44 µM (inactive) | 73.6 µM (inactive) | 20.3 µM (inactive) | 24 µM (inactive) | > 100 µM (inactive) | 42.7 µM (inactive) | 76 µM (inactive) |
| [O-][S+]1SC(=S)C2C=CC=CC21 (centres undefined) | > 100 µM (inactive) | 93.1 µM (inactive) | > 100 µM (inactive) | 80 µM (inactive) | 40.9 | > 100 µM (inactive) | > 100 µM (inactive) | > 100 µM (inactive) | 58.5 µM (inactive) | > 100 µM (inactive) | > 100 µM (inactive) | 34.7 µM (inactive) | 92.9 µM (inactive) | > 100 µM (inactive) | 49.1 µM (inactive) | 76.2 µM (inactive) | > 100 µM (inactive) | 38.2 µM (inactive) | 34 µM (inactive) | > 100 µM (inactive) |
| O=c1[nH]c2cc(C(F)(F)F)ccc2nc1CBr | 21.3 µM (inactive) | 18.4 µM (inactive) | 14.3 µM (inactive) | 11.4 µM (inactive) | 11.4 | 6.62 µM (inactive) | 13.1 µM (inactive) | 15.4 µM (inactive) | 9.51 µM (inactive) | 18.5 µM (inactive) | 9.31 µM (inactive) | 1.82 µM (inactive) | 5.97 µM (inactive) | 15.1 µM (inactive) | 10.6 µM (inactive) | 0.36 µM (active) | 15.7 µM (inactive) | 11 µM (inactive) | 13.9 µM (inactive) | 9.59 µM (inactive) |
| CC1=CC[C@H](C(C)C)C(C(O)[C@@H](C)O[Si](c2ccccc2)(c2ccccc2)C(C)(C)C)C1=O (some centres undefined) | 21.1 µM (inactive) | 18.6 µM (inactive) | 21.4 µM (inactive) | 21.4 µM (inactive) | 13.9 | 15 µM (inactive) | 18.9 µM (inactive) | 16.6 µM (inactive) | 14.8 µM (inactive) | 28.5 µM (inactive) | 17.9 µM (inactive) | 21.8 µM (inactive) | 9.73 µM (inactive) | 32.3 µM (inactive) | 24.2 µM (inactive) | 16.5 µM (inactive) | 15.5 µM (inactive) | 14.7 µM (inactive) | 14.8 µM (inactive) | 18.9 µM (inactive) |
| Clc1ccc(Nc2nc(Cl)c3nc[nH]c3n2)cc1Cl | 22.1 µM (inactive) | 18.4 µM (inactive) | 28.5 µM (inactive) | 26.9 µM (inactive) | 21 | 15.8 µM (inactive) | 15.6 µM (inactive) | 25.4 µM (inactive) | 33.6 µM (inactive) | 33.2 µM (inactive) | 43.8 µM (inactive) | 13.4 µM (inactive) | 29 µM (inactive) | – | 22.2 µM (inactive) | 18.7 µM (inactive) | 52.7 µM (inactive) | 30.1 µM (inactive) | 14.5 µM (inactive) | 38 µM (inactive) |
| Clc1ccc(-c2ccc(-c3nn4c(CNc5ccccc5)nnc4s3)o2)c(Cl)c1 | > 100 µM (inactive) | > 100 µM (inactive) | > 100 µM (inactive) | 58.1 µM (inactive) | 48.1 | > 100 µM (inactive) | > 100 µM (inactive) | 53.6 µM (inactive) | – | > 100 µM (inactive) | > 100 µM (inactive) | > 100 µM (inactive) | 36.6 µM (inactive) | > 100 µM (inactive) | 22.8 µM (inactive) | 57.8 µM (inactive) | > 100 µM (inactive) | 72.3 µM (inactive) | 85.9 µM (inactive) | > 100 µM (inactive) |
| Clc1ccc(C2NN=C3c4ccccc4OCC32)cc1 (centres undefined) | 5.36 µM (inactive) | 18.2 µM (inactive) | 14.9 µM (inactive) | 2.38 µM (inactive) | 3.08 | 4.65 µM (inactive) | 13.5 µM (inactive) | 4.39 µM (inactive) | 5.07 µM (inactive) | 5.82 µM (inactive) | 5.73 µM (inactive) | 8.02 µM (inactive) | 2.44 µM (inactive) | 15.3 µM (inactive) | 3.2 µM (inactive) | 1.5 µM (inactive) | 13.4 µM (inactive) | 5.41 µM (inactive) | 4.3 µM (inactive) | 3.64 µM (inactive) |
| C/C(=N\O)c1ccc(Nc2nc3ccccc3c3occc23)cc1 | 6.31 µM (inactive) | 8.41 µM (inactive) | 9.57 µM (inactive) | 6.58 µM (inactive) | 2.55 | 3.8 µM (inactive) | 18.3 µM (inactive) | 15.6 µM (inactive) | 14.7 µM (inactive) | 18.6 µM (inactive) | 13.1 µM (inactive) | 4.23 µM (inactive) | 2.58 µM (inactive) | – | 7.01 µM (inactive) | 3.34 µM (inactive) | – | 3.87 µM (inactive) | 1.82 µM (inactive) | – |
| O[C@H]1[C@H]2[C@H](O)C[C@H](CCOCc3ccccc3)CN2C[C@H]1O | > 100 µM (inactive) | > 100 µM (inactive) | > 100 µM (inactive) | > 100 µM (inactive) | > 100 | > 100 µM (inactive) | > 100 µM (inactive) | > 100 µM (inactive) | > 100 µM (inactive) | > 100 µM (inactive) | > 100 µM (inactive) | > 100 µM (inactive) | > 100 µM (inactive) | > 100 µM (inactive) | > 100 µM (inactive) | > 100 µM (inactive) | > 100 µM (inactive) | > 100 µM (inactive) | > 100 µM (inactive) | > 100 µM (inactive) |
| COc1cc2c(c(O)c1OC)CC1CCC(=O)N1C2c1cccc2ccccc12 (centres undefined) | 25.1 µM (inactive) | 18.5 µM (inactive) | 18.5 µM (inactive) | 19.2 µM (inactive) | 24.4 | 30.3 µM (inactive) | 22.3 µM (inactive) | 24 µM (inactive) | 14.2 µM (inactive) | 18.9 µM (inactive) | 16.9 µM (inactive) | 23 µM (inactive) | 19.3 µM (inactive) | 21.9 µM (inactive) | 24 µM (inactive) | 20.3 µM (inactive) | > 10 µM (inactive) | 31.6 µM (inactive) | 22.9 µM (inactive) | 27.7 µM (inactive) |
| C/C(=N\[N+](C)(C)C)c1ccc(C)c(C)c1 | > 10 µM (inactive) | 22.3 µM (inactive) | 64.3 µM (inactive) | 96.4 µM (inactive) | > 10 | > 10 µM (inactive) | 58.3 µM (inactive) | 62.5 µM (inactive) | > 100 µM (inactive) | 77.6 µM (inactive) | 20.4 µM (inactive) | > 10 µM (inactive) | 54 µM (inactive) | > 10 µM (inactive) | > 100 µM (inactive) | 49.1 µM (inactive) | 88.1 µM (inactive) | 7.62 µM (inactive) | 29.4 µM (inactive) | 51.3 µM (inactive) |
| O=C1C=CC2(O[C@H](C3CCCCC3)[C@@H](C3CCCCC3)O2)C(SC(=O)c2ccccc2)C1 (some centres undefined) | 2.62 µM (inactive) | 8.41 µM (inactive) | 2.44 µM (inactive) | 1.62 µM (inactive) | 3.21 | 1.68 µM (inactive) | 3.1 µM (inactive) | 2.47 µM (inactive) | 2.48 µM (inactive) | 12.9 µM (inactive) | 1.82 µM (inactive) | 1.41 µM (inactive) | 0.968 µM (active) | 0.347 µM (active) | 1.75 µM (inactive) | 1.04 µM (active) | 1.25 µM (inactive) | 6.07 µM (inactive) | 7.8 µM (inactive) | 1.91 µM (inactive) |
| CC(C)(C)c1cc(OCc2nnc3sc(Cc4ccccc4)nn23)c(Cl)cc1OCc1nnc2sc(Cc3ccccc3)nn12 | 44.2 µM (inactive) | 30.5 µM (inactive) | 33 µM (inactive) | 24.1 µM (inactive) | 33.4 | 17.3 µM (inactive) | 21.5 µM (inactive) | 31.9 µM (inactive) | 19.5 µM (inactive) | 34 µM (inactive) | 44.6 µM (inactive) | 29.1 µM (inactive) | 20.7 µM (inactive) | 24.2 µM (inactive) | 22 µM (inactive) | 37.2 µM (inactive) | 24.8 µM (inactive) | 28.8 µM (inactive) | 17.7 µM (inactive) | 26.7 µM (inactive) |
| COc1cc(N(CCC#N)CCC#N)ccc1/C=C1\SC(=S)NC1=O | > 100 µM (inactive) | > 100 µM (inactive) | > 100 µM (inactive) | > 100 µM (inactive) | > 100 | > 100 µM (inactive) | > 100 µM (inactive) | > 100 µM (inactive) | > 100 µM (inactive) | > 100 µM (inactive) | > 100 µM (inactive) | > 100 µM (inactive) | > 100 µM (inactive) | > 100 µM (inactive) | > 100 µM (inactive) | > 100 µM (inactive) | > 100 µM (inactive) | > 100 µM (inactive) | > 100 µM (inactive) | > 100 µM (inactive) |
